Patent US20250325524A1, “COMPOSITIONS AND METHODS FOR TREATING RENAL INJURY” (CASE WESTERN RESERVE UNIVERSITY, priority 2018, published 2025)

Experiments:
[1] = stability on incubation with hepatocyte extracts; format: in vitro ADME
[2] = tested on: cAMP/AMP/adenosine signaling pathway; test: renal IRI model: cAMP, AMP and adenosine levels; format: in vivo; conditions: IRI mice
Experimental: Mice were anesthetized with isoflurane using a vaporizer and placed on a heating pad to maintain their body temperature at 37° C. Both renal arteries were identified through dorsal incisions and clamped for 20, 30, 35, or 37 minutes. Reperfusion was confirmed visually upon release of the clamps. Surgical wounds were closed, and mice were administered 1 mL of saline i.p. The mice were kept in a warm incubator until they regained consciousness and were allowed to recover with ad libitum access to food and water. […] Serum and kidney tissue were collected 24 hours after renal IRI.
After reperfusion for 24 hours, kidney tissues were harvested, homogenized in 10 volumes of 0.1 M HCl, and centrifuged for 10 minutes at 12,000 rpm. The protein concentration was determined by BCA assay. cAMP levels in kidney tissues were measured using a cAMP Complete ELISA Kit (ADI-900-163; Enzo Life Science) an adenosine Assay Kit (KA4547; abnova) and high-performance liquid chromatography (HPLC).

malondialdehyde (MDA) = test: renal IRI model: malondialdehyde (MDA) in kidney tissue; format: in vivo; conditions: IRI mice, single pre-IRI dose; vehicle peak 48% at 2 hours
Experimental: Mice were anesthetized with isoflurane using a vaporizer and placed on a heating pad to maintain their body temperature at 37° C. Both renal arteries were identified through dorsal incisions and clamped for 20, 30, 35, or 37 minutes. Reperfusion was confirmed visually upon release of the clamps. Surgical wounds were closed, and mice were administered 1 mL of saline i.p. The mice were kept in a warm incubator until they regained consciousness and were allowed to recover with ad libitum access to food and water. […]
Reactive oxygen species (ROS) levels were determined by measurement of malondialdehyde (MDA), the end product of lipid peroxidation in […]. Free MDA reacts with thiobarbituric acid (TBA) at 95° C. to generate an MDA-TBA adduct, which can be quantified colorimetrically at a wavelength of 532 nm. MDA levels were measured in kidney lysates using a lipid peroxidation (MDA) assay kit (ab118970; Abcam). Results were corrected for total protein level and are expressed as […].

mice with ischemic AKI = test: survival and body weight over 7 days after renal IRI; format: in vivo; conditions: bilateral IRI 30 minutes, 5 mg/kg i.p. once pre-IRI then twice daily for 7 days
Experimental: (A) Experimental setup for toxicity. Ischemic AKI induced by bilaterally clamping the renal arteries for 30 minutes, followed by reperfusion. […] (n=10 per group). (B, C) Survival curves and body weight over 7 days. Kaplan-Meier analysis of survival stratified by AKI stage. Data are means±SEM. *P<0.05 vs. corresponding BI30_vehicle.

## CCCC[S+]([O-])c1sc2nc(-c3cccs3)cc(-c3ccccc3)c2c1N (centres unmarked) [SW033291]
[1]
  chemical stability when incubated with hepatocyte extracts: chemically stable
[2]
  levels of adenosine in the kidney: increased
  levels of serum adenosine: significantly increased
[2]; decrease after IRI vs sham
  AMP level in kidney tissue: substantially reversed
  cAMP level in kidney tissue: substantially reversed
Malondialdehyde (MDA)
  increase of malondialdehyde (MDA) above baseline: 14%
Mice with ischemic AKI
  body weight at POD7: regained greater weights than did vehicle treated mice
  survival: survived at 7 days
